Two compounds from publication PMC10475565 (2023) can be followed below.

The test system of experiment [1] is d(TG4T) (DNA, G4) TGGGGT. Nature of the experiment: fluorescent intercalator displacement. Particulars: 10 mM sodium cacodylate, 0.5 mM EDTA, pH 7.0, 21-23 °C, thiazole orange displaced, 1 μM neomycin, 1 μM quadruplex.
The test system of experiment [2] is CEB1 (DNA, G4) AGGGGGGAGGGAGGGTGG
Nature of the experiment: ITC. Conditions: 60 mM KCl; 10 mM sodium cacodylate, 0.5 mM EDTA, pH 7.0, 20 °C.

Experiment [3] has as its system d(TG4T) (DNA, G4) TGGGGT. Nature of the experiment: ITC. Particulars: 60 mM KCl, 10 mM sodium cacodylate, 0.5 mM EDTA, pH 7.0, 20 °C.
Experiment [4] has as its system d(UG4T) (DNA, G4, 2'-deoxyuridine at 1) UGGGGT. Description: ITC. Conditions: 60 mM KCl; 10 mM sodium cacodylate, 0.5 mM EDTA, pH 7.0, 20 °C.
The test system of experiment [5] is d(T2G4T2) (DNA, G4) TTGGGGTT
Nature of the experiment: ITC. Particulars: 60 mM KCl; 10 mM sodium cacodylate, 0.5 mM EDTA, pH 7.0, 20 °C.

Experiment [6] relates to d(T3G4T3) (DNA, G4) TTTGGGGTTT
Description: ITC. Conditions: 60 mM KCl; 10 mM sodium cacodylate, 0.5 mM EDTA, pH 7.0, 20 °C; one binding event, isotherm not fitted.

Experiment [7] concerns d(T4G4T4) (DNA, G4) TTTTGGGGTTTT
Nature of the experiment: ITC. Particulars: 90 mM KCl; 10 mM sodium cacodylate, 0.5 mM EDTA, pH 7.0, 20 °C; one binding event, isotherm not fitted.

As to `NC[C@@H]1O[C@H](O[C@H]2[C@@H](O)[C@H](O[C@@H]3[C@@H](O)[C@H](N)C[C@H](N)[C@H]3O[C@H]3O[C@H](CN)[C@@H](O)[C@H](O)[C@H]3N)O[C@@H]2CO)[C@H](N)[C@@H](O)[C@@H]1O`, the “% fluorescence change” value in experiment [1] (30 mM NaCl) is recorded as ~ 25%; in experiment [1] (60 mM KCl), ~ 15%. The compound further had an association constant in experiment [2] of 723000 M⁻¹. Further, the Ka1 in experiment [3] (site 1 of 2) is listed as 2.10 ± 0.80 × 10^8 M^-1. Also, the results for the Ka in experiment [4] and in experiment [5] were 1.23 ± 0.05 × 10^6 M^-1 and 59000 M⁻¹, respectively. The binding entry in experiment [6] and in experiment [7] was “yes” each time.

`NC[C@@H]1O[C@H](O[C@H]2[C@@H](O)[C@H](O[C@@H]3[C@@H](O)[C@H](N)C[C@H](N)[C@H]3O[C@H]3O[C@H](CO)[C@@H](O)[C@H](O)[C@H]3N)O[C@@H]2CO)[C@H](N)[C@@H](O)[C@@H]1O`: the binding result in experiment [3] (isotherm could not be fitted, 300 μM titrant) is reported as “weak”.
